The source of these data is publication PMC12977469, “Ligand binding drives proteolysis of the SmcR master transcription factor and controls quorum sensing-state transitions in Vibrio species” (mBio, 2026).

The assay deals with T1, SmcR (Vibrio vulnificus, UniProt Q9L8G8).
T1 construct: full-length, His-tagged SmcR (homodimer); residues 1–15 not modeled in the crystal structure
In words: X-ray crystal structure ([…] Å) and isothermal titration calorimetry with purified protein; SAXS. Format: binding. (ITC needs no label: the signal is the heat of the interaction.)

The structures appear in SMILES notation.

T1 sequence (Q9L8G8 entry or part of it): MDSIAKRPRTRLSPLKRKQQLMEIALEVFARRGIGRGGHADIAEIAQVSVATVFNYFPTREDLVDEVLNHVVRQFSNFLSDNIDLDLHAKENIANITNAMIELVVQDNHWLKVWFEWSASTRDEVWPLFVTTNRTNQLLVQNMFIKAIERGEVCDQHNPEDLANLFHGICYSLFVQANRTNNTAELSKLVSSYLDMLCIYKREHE

On to `O=S(=O)(c1cccs1)n1ccc(-c2ccccc2)n1` [PTSP, 3-phenyl-1-(thiophen-2-ylsulfonyl)-1H-pyrazole], for which the Kd (usually the concentration at which binding is half-saturated) is approximately 1000 nM.
